Measured values: patent publication US20110182850A1, “ORGANIC COMPOUNDS AND THEIR USES” (priority 2009, published 2011)
Read-outs that look alike come from different tables or passages of the source.

Assays:
[1] = biological target: T1, HCV NS3-4A serine protease (full-length NS3-4A protein, genotype 1a, strain HCV-1) (Hepatitis C virus genotype 1a, UniProt P26664); test: HCV NS3-4A protease assay; assay type: biochemical; conditions: Protease IC50
T1 construct: using the full-length NS3-4A protein (genotype 1a, strain HCV-1)
T1 sequence (P26664 1658-1711): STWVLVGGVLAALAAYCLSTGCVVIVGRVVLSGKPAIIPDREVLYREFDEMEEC
T1 sequence (P26664 1027-1657): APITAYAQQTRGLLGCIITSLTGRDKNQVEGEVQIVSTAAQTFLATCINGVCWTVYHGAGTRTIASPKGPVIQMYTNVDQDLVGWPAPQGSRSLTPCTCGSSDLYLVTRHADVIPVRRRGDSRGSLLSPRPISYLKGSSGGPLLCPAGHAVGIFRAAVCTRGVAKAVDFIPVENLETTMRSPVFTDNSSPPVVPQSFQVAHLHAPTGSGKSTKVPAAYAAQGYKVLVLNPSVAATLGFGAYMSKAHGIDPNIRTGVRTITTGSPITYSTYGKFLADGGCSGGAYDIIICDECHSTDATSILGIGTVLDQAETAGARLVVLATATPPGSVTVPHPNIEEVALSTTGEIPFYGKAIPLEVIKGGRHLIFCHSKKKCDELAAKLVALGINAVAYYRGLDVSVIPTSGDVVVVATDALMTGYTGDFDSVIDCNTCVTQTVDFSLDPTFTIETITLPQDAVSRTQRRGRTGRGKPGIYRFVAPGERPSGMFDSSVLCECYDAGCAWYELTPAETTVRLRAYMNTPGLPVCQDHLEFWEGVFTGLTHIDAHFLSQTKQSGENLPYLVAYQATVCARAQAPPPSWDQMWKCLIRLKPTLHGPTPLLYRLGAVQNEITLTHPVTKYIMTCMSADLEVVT
Method: The inhibitory activity of certain compounds of Table A against HCV NS3-4A serine protease is determined in a homogenous assay using the full-length NS3-4A protein (genotype 1a, strain HCV-1) and a commercially available internally-quenched fluorogenic peptide substrate as described by Taliani, M., et al. 1996 Anal. Biochem. 240:60-67, which is incorporated by reference in its entirety.

in vivo = test: in vivo; design: species or system Sprague Dawley rats; conditions: Sprague Dawley, rat; for Cmax: po, 10 mg/kg
Method: Certain compounds of Table A and Comparative Example 1 (Compound A-7 of copending international patent application serial no. PCT/EP08/063,460) are administered as a solution orally via gavage at 10 mg/kg to Sprague Dawley rats at a dosing volume of 10 ml/kg. Samples are collected via a surgically implanted cannula at selected timepoints deemed necessary to characterize pharmacokinetic parameters. Blood samples are placed on wet ice and spun down to plasma within 5 minutes of timepoint collection. Plasma samples are frozen until bioanalytical analysis.
Certain compounds of Table A and Comparative Example 1 are administered intravenously into a surgically implanted cannula as a solution at 1 mg/kg to Sprague Dawley rats at a dosing volume of […]. Samples are collected via another surgically implanted cannula at selected timepoints deemed necessary to characterize pharmacokinetic parameters. Blood samples are placed on wet ice and spun down to plasma within 5 minutes of timepoint collection. Plasma samples are frozen until bioanalytical analysis.

[2] = Measurement of thermodynamic solubility; assay type: physicochemical; conditions: thermodynamic from solid, read-out: solubility in water
Method: Thermodynamic solubility for the compounds of the invention listed in Table C is measured by a published literature procedure, e.g., Liping Zhou, et al., J. Pharm. Sci (2007) 96(11): 3052-3071.
The DMSO stocks of test compounds previously dissolved in 25 μL of DMSO (˜10 mM) in mini-prep vial (MPV: Whatman, with PVDF filter and 0.45 μm pore size) chamber were evaporated via a GeneVac HT-4X evaporator for approximately 1 hour, at the guard temperature of 30° C. An aliquot of 250 μL buffer solution (pH 1.0 or 6.8) was added into each MPV chamber containing powders reconstituted from DMSO stock solutions. The MPV filter plungers were pushed down into the chamber until the membrane of the filter plunger slightly touched the surface of the buffer to promote equilibrium between the two compartments and to minimize the adsorption due to non-specific binding of samples during the subsequent 24-hr incubation (at 600 RPM at room temperature). Immediately after the 24-hr incubation, the plungers were further pushed down to the bottom of the chambers. More solution was pushed through the membrane and entered the plunger compartment. The filter/chamber assemblies were then put on a shaker for another 30 minutes at 600 RPM. Afterwards, filtrates were further diluted (1:10) with 50/50 acetonitrile/water solvent followed by a thorough mixing process. Both plates with diluted and undiluted filtrates were analyzed by HPLC and quantified against the four-point standard dilution curve of the same test compound (5 μM, 35 μM, 65 μM and 100 μM, respectively). In the current study, solubility reflects the average of triplicate samples tested at each pH.

[3] = pH 1, simulated gastric fluid, pH of about 1
[4] = pH 6.8, aqueous buffer, pH of about 6.8

Which IC50 [1] does the source give for `CCCC1(S(=O)(=O)NC(=O)[C@@]2(NC(=O)[C@@H]3C[C@@]4(CN3C(=O)[C@@H](NC(=O)[C@@H](NC(=O)[C@@H]3CCCN3CC)C3CCCCC3)C(C)(C)C)C(C)(C)C43CCC3)C[C@H]2CC)CC1` [Compound 75, (5R,8S)-7-[(2S)-2-{[(2S)-2-cyclohexyl-2-({[(2S)-1-ethylpyrrolidin-2-yl]carbonyl}amino)acetyl]amino}-3,3-dimethylbutanoyl]-N-[(1R,2R)-2-ethyl-1-{[(1-propylcyclopropyl)sulfonyl]carbamoyl}cyclopropyl]-10,10-dimethyl-7-azadispiro[3.0.4.1]decane-8-carboxamide] here?
Its IC50 is 7 nM.

And the Cmax (in vivo)?
Its Cmax is 289 nM.

And the solubility at 24 h [2, 3]?
Its solubility at 24 h is no less than 100 µM.

And the solubility at 24 h [2, 4]?
The solubility at 24 h was no less than 30 µM.

With `CC[C@@H]1C[C@]1(NC(=O)[C@@H]1C[C@@]2(CN1C(=O)[C@@H](NC(=O)[C@@H](NC(=O)[C@@H]1CCCN1CC)C1CCCCC1)C(C)(C)C)C(C)(C)C21CCC1)C(=O)NS(=O)(=O)C1(C)CC1` [Compound 81, (5R,8S)-7-[(2S)-2-{[(2S)-2-cyclohexyl-2-({[(2S)-1-ethylpyrrolidin-2-yl]carbonyl}amino)acetyl]amino}-3,3-dimethylbutanoyl]-N-[(1R,2R)-2-ethyl-1-{[(1-methylcyclopropyl)sulfonyl]carbamoyl}cyclopropyl]-10,10-dimethyl-7-azadispiro[3.0.4.1]decane-8-carboxamide] as the compound, how does the IC50 [1] read?
Its IC50 is 0.6 nM.

What about the bioavailability (in vivo) of the same compound?
Its bioavailability is 22%.

What about the Cmax (in vivo) of the same compound?
Its Cmax is 692 nM.

And the solubility at 24 h [2, 3]?
Its solubility at 24 h is no less than 100 µM.

And the solubility at 24 h [2, 4]?
The solubility at 24 h was no less than 30 µM.

What does the source list for `CC[C@@H]1C[C@]1(NC(=O)[C@@H]1C[C@@]2(CN1C(=O)[C@@H](NC(=O)[C@@H](NC(=O)[C@@H]1CCCCN1CC)C1CCCCC1)C(C)(C)C)C(C)(C)C21CCC1)C(=O)NS(=O)(=O)C1(C)CC1` [Compound 83, (5R,8S)-7-[(2S)-2-{[(2S)-2-cyclohexyl-2-({[(2S)-1-ethylpiperidin-2-yl]carbonyl}amino)acetyl]amino}-3,3-dimethylbutanoyl]-N-[(1R,2R)-2-ethyl-1-{[(1-methylcyclopropyl)sulfonyl]carbamoyl}cyclopropyl]-10,10-dimethyl-7-azadispiro[3.0.4.1]decane-8-carboxamide]?
IC50 [1]: 2.5 nM; bioavailability (in vivo): 26%; Cmax (in vivo): 578 nM; solubility at 24 h [2, 3]: ≥ 100 µM; solubility at 24 h [2, 4]: ≥ 30 µM
